Common to all, as to assay type: cell-based
One experiment has as its system Karpas-299 cells. The experiment can be described thus: Karpas-299 cell proliferation assay (CellTiter-Glo). The following applies: Homo sapiens, 72 h; Karpas-299 cell line (NPM-ALK); 3 days incubation; at least duplicate experiments; read-out: Prolif. IC50. As for the experimental part: The effect of inhibitors on the proliferation of Karpas-299 cells (DSMZ no. ACC 31) was determined using the following protocol. Karpas-299 cells were plated in 96-well white tissue culture treated plates (Corning 3917) in growth medium (RPMI, 10% FCS) at a density of 5000 cells/well in a total volume of 135 μL and incubated at 37° C., 5% CO2, 95% humidity overnight. The following day, one-tenth volume of a 10× concentration of compounds was added to the wells in an 8-point dilution series. Compounds were serially diluted (1:4) in DMSO from a 10 mM stock solution prior to dilution in growth media to the 10× working concentrations (5% DMSO). Final concentration of DMSO in compound-treated wells was 0.5%. Control wells containing growth media or growth media/0.5% DMSO were included in all test plates. […] Once the compounds were added to the cells, plates were incubated for 3 days at 37° C., 5% CO2 at 95% humidity. After 72 hours, all cells and reagents were equilibrated to room temperature and 15 μL of CellTiter-Glo reagent (Promega # G7573) was added to each well. Plates were shaken on a platform for 10 minutes at room temperature prior to reading luminescence. The value of the signal of the control wells was set as 100% growth and growth inhibition was expressed as percent of control. IC50 values were determined from the percent of control data using a standard four-parameter curve fit equation.
The IC50 values of exemplary compounds of the present invention determined in a cell proliferation assay using the Karpas-299 cell line according to the procedures described herein in at least duplicate experiments are abbreviated as follows and are shown in Table 5: A, IC50≦0.05 μM; B, 0.05 μM<IC50≦0.2 μM; C, 0.2 μM<IC50≦1 μM; D, IC50>1 μM; ND, not determined. The Example # of Table 5 corresponds to the compound example number as illustrated in the Examples section.
The Karpas-299 cell line has a t(2; 5) chromosomal translocation and expresses the NPM-ALK fusion protein, resulting in constitutively active ALK. […] Ther. 6(12):3314-22 (2007)]. With this “ALK-driven” cell line, the cell proliferation IC50 values can thus be used as surrogate for the p-ALK cell mechanistic IC50 values.

A further experiment deals with MKN45 cells. The experiment can be described thus: MKN45 cell proliferation assay (CellTiter-Glo). As to conditions: Homo sapiens, MKN-45, 72 h; MKN45 cell line; 3 days incubation; at least duplicate experiments; read-out: Prolif. IC50. As for the experimental part: The effect of inhibitors on the proliferation of MKN45 cells was determined using the following protocol. MKN45 cells were plated in Corning 3917 96-well white tissue culture treated plates in growth medium (RPMI, 10% FCS) at a density of 5000 cells/well in a total volume of 135 μL and incubated at 37° C., 5% CO2, 95% humidity overnight. The following day, one-tenth volume of a 10× concentration of compounds was added to the wells in an 8-point dilution series. The dilution series was composed of an initial 1:5 dilution of a 10 mM stock of compound in DMSO, followed by serial 1:4 dilutions in DMSO, then a 1:20 dilution in growth medium prior to the 1:10 dilution into the cell plate. […] The typical dilution range is 10 μM to 0.6 nM. Once the compound was added to the cells, plates were incubated for 3 days at 37° C., 5% CO2 at 95% humidity. On the third day, after allowing all cells and reagents to come to room temperature, 25 μL of CellTiter-Glo reagent (Promega #G7573) was added to the wells. Plates were shaken on a platform for 10 minutes prior to reading luminescence for 0.1 seconds. The signal of the control wells was taken as 100% growth and growth inhibition was expressed as percent of control. IC50 values were determined from the percent of control data using a standard four-parameter model.
The IC50 values of exemplary compounds of the present invention determined in a cell proliferation assay using the MKN45 cell line according to the procedures described herein in at least duplicate experiments are abbreviated as follows and are shown in Table 2: A, IC50≦0.05 μM; B, 0.05 μM<IC50≦0.2 μM; C, 0.2 μM<IC50≦1 μM; D, IC50>1 μM; ND, not determined. The Example # of Table 2 corresponds to the compound example number as illustrated in the Examples section.
Treatment of this cell line with a selective c-MET inhibitor led to induction of apoptosis and inhibition of proliferation, whereas non-MET-amplified cell lines were not affected [Smolen et al., Proc. Natl. Acad. Sci. USA, 103(7):2316-2321 (2006)]. This cell line is thus “driven” by c-MET, and antiproliferative effects correlate very well with the inhibition of c-MET phosphorylation so that the cell proliferation IC50, values can be used as surrogate for the c-MET cell mechanistic IC50, values. Under the assay conditions described herein, the IC50 values correlate nearly 1:1.

For a further experiment, the target named is T1, RON (Homo sapiens, UniProt Q04912).
T1 sequence (Q04912 913-1400): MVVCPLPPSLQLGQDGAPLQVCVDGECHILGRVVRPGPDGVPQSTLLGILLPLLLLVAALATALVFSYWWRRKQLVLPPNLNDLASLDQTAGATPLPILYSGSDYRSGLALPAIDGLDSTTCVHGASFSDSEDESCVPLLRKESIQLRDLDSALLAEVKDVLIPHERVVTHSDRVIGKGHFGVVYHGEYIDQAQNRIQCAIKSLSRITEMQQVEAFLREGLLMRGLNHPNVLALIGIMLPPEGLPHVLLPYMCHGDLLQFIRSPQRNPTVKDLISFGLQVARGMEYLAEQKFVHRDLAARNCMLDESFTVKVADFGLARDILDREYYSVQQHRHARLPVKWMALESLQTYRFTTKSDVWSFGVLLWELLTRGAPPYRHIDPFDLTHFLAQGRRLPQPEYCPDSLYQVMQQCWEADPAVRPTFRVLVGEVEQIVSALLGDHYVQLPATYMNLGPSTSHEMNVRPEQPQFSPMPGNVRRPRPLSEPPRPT
The experiment can be described thus: sfRON cell mechanistic assay (HeLa), phosphorylated RON ELISA. The following applies: HeLa cells transfected with sfRON; inhibition of phosphorylated RON; four hours incubation; at least duplicate experiments; read-out: sfRON mech IC50. As for the experimental part: The cellular activity of the compounds of the present invention against RON may be determined by the following procedure. HeLa cells were plated in Falcon 3072 96-well plates in growth media (DMEM, 10% FBS, 1% L-glutamine) at a density of 10000 cells/well and incubated at 37° C., 5% CO2 overnight. The following day, cells were transfected with 0.2 μg sfRON-pcDNA plasmid DNA with 0.5 μL Lipofectamine-2000 per well in the presence of 50 μL OPTI-MEM, incubated at 37° C., 5% CO2 overnight. Costar 3915 96-well assay plates were coated with rabbit Anti-RON antibody at 2.0 μg/mL, sealed, and incubated overnight at 4° C. On the third day, coated plates were washed with PBS and blocked with 3% BSA. For the sfRON transfected cells, one-tenth volume of a 10× concentration of compounds was added to the wells in a 6-point dilution series. The dilution series was composed of an initial 1:5 dilution of a 10 mM DMSO stock solution of compound in DMSO, followed by a 1:10 dilution in growth media, for a final DMSO concentration on cells of 0.5%. Control wells were treated with 0.5% DMSO. The typical range of dilution was 10 μM to 3 nM. Once compound was added to the cells, plates were incubated for four hours at 37° C., 5% CO2. Plates were then washed in PBS, and lysed in triton-based lysis buffer. Lysates were transferred to the blocked capture plates. The phosphorylated RON levels were measured by incubating with a Goat polyclonal antibody against phosphorylated RON ([pYpY1238/1239]) followed by an anti-Goat antibody conjugated to HRP. Signal was measured on a Wallac Victor plate reader with luminance. The DMSO signal of the control wells was defined as 100% and the percent of inhibition of phosphorylated RON was expressed as percent of control. IC50 values were determined from the percent of control data using a standard four-parameter model.
The IC50 values of exemplary compounds of the present invention determined in a sfRON cell mechanistic assay using the HeLa cell line according to the procedures described herein in at least duplicate experiments are abbreviated as follows and are shown in Table 3: A, IC50≦0.2 μM; B, 0.2 μM<IC50≦1.0 μM; C, IC50>1 μM; ND, not determined. The Example # of Table 3 corresponds to the compound example number as illustrated in the Examples section.

For the compound `Cc1c(-c2cnc3[nH]cc(C(C)c4c(Cl)ccc(F)c4O)c3c2)cnn1[C@H]1CC[C@H](O)CC1` (stereo partly drawn) [Example 115, 3-Chloro-6-fluoro-2-(1-{5-[1-(trans-4-hydroxycyclohexyl)-5-methyl-1H-pyrazol-4-yl]-1H-pyrrolo[2,3-b]pyridin-3-yl}ethyl)-phenol], the IC50 in the experiment on Karpas-299 cells is no more than 50 nM; in the experiment with MKN45 cells it was 50 to 200 nM; at RON, greater than 1000 nM.
On to `COc1ccc(F)c(Cl)c1[C@@H](C)c1c[nH]c2ncc(-c3cnn([C@H]4CC[C@@H](N5CCNCC5)CC4)c3C)cc12` [Example 56, 3-[(1S)-1-(2-Chloro-3-fluoro-6-methoxyphenyl)ethyl]-5-{5-methyl-1-[cis-4-(piperazin-1-yl)cyclohexyl]-1H-pyrazol-4-yl}-1H-pyrrolo[2,3-b]pyridine], for which the IC50 was 50 to 200 nM in the experiment on Karpas-299 cells, 50 to 200 nM in the experiment on MKN45 cells and greater than 1000 nM on RON.
Turning to `COc1ccc(F)c(Cl)c1[C@H](CF)c1c[nH]c2ncc(-c3cnn([C@H]4CC[C@H](O)CC4)c3C)cc12` [Example 120, trans-4-(4-{3-[(1R)-1-(2-Chloro-3-fluoro-6-methoxyphenyl)-2-fluoroethyl]-1H-pyrrolo[2,3-b]pyridin-5-yl}-5-methyl-1H-pyrazol-1-yl)cyclohexanol], the figures for the IC50 with Karpas-299 cells, in the experiment with MKN45 cells and at RON were 200 to 1000 nM, 200 to 1000 nM and greater than 1000 nM, respectively.
Turning to `[2H][C@@](C)(c1c(OC(F)F)ccc(F)c1Cl)c1c[nH]c2ncc(-c3cnn([C@H]4CC[C@H](O)CC4)c3C)cc12` [Example 114, trans-4-(4-{3-[(1S)-1-[2-Chloro-6-(difluoromethoxy)-3-fluorophenyl](1-^2H)ethyl]-1H-pyrrolo[2,3-b]pyridin-5-yl}-5-methyl-1H-pyrazol-1-yl)cyclohexanol], the values for the 50% inhibitory concentration (IC50) in the experiment on Karpas-299 cells, in the experiment with MKN45 cells and at RON were no more than 50 nM, no more than 50 nM and no more than 200 nM, respectively.
Consider `Cc1c(-c2cnc3[nH]cc([C@H](C)c4c(OC(F)F)ccc(F)c4Cl)c3c2)cnn1[C@H]1CC[C@H](N2CCC[C@H]2C(=O)O)CC1` [Example 91, 1-{trans-4-[4-(3-{(1S)-1-[2-Chloro-6-(difluoromethoxy)-3-fluorophenyl]ethyl}-1H-pyrrolo[2,3-b]pyridin-5-yl)-5-methyl-1H-pyrazol-1-yl]cyclohexyl}-L-proline], for which the IC50 is 50 to 200 nM with Karpas-299 cells, 50 to 200 nM in the experiment with MKN45 cells and greater than 1000 nM on RON.
`Cc1c(-c2cnc3[nH]cc([C@H](C)c4c(OC(F)F)ccc(F)c4Cl)c3c2)cnn1C[C@@H](O)CO` [Example 87, (2R)-3-[4-(3-{(1S)-1-[2-Chloro-6-(difluoromethoxy)-3-fluorophenyl]ethyl}-1H-pyrrolo[2,3-b]pyridin-5-yl)-5-methyl-1H-pyrazol-1-yl]propane-1,2-diol]: the IC50 was no more than 50 nM in the experiment on Karpas-299 cells, no more than 50 nM in the experiment on MKN45 cells and no more than 200 nM on RON.
Consider `Cc1c(-c2cnc3[nH]cc([C@H](C)c4c(OC(F)F)ccc(F)c4Cl)c3c2)cnn1C1CCC(=O)CC1` [Example 88, 4-[4-(3-{(1S)-1-[2-Chloro-6-(difluoromethoxy)-3-fluorophenyl]ethyl}-1H-pyrrolo[2,3-b]pyridin-5-yl)-5-methyl-1H-pyrazol-1-yl]cyclohexanone], for which the IC50 with Karpas-299 cells is no more than 50 nM; with MKN45 cells, no more than 50 nM; on RON, 200 to 1000 nM.
With `N#CC(c1c(Cl)ccc(F)c1Cl)c1c[nH]c2ncc(-c3cnn([C@H]4CC[C@H](O)CC4)c3F)cc12` (stereo partly drawn) [Example 109], the figures for the IC50 in the experiment on Karpas-299 cells, with MKN45 cells and on RON were 200 to 1000 nM, 50 to 200 nM and 200 to 1000 nM, respectively.
As for `Cc1c(-c2cnc3[nH]cc([C@H](CF)c4c(Cl)ccc(F)c4Cl)c3c2)cnn1[C@H]1CC[C@H](O)CC1` [Example 118, trans-4-(4-{3-[(1S)-1-(2,6-Dichloro-3-fluorophenyl)-2-fluoroethyl]-1H-pyrrolo[2,3-b]pyridin-5-yl}-5-methyl-1H-pyrazol-1-yl)cyclohexanol], the IC50 lay within 50 to 200 nM with Karpas-299 cells, 50 to 200 nM in the experiment on MKN45 cells and 200 to 1000 nM at RON.

A word on the IC50: it is the concentration that inhibits the measured activity by half.

The values above are taken from patent US8445510B2, “Fused bicyclic kinase inhibitors” (OSI Pharmaceuticals, LLC, priority 2011, dated 2013).
